Experimental data from article PMC5733478, “A Non-imaging High Throughput Approach to Chemical Library Screening at the Unmodified Adenosine-A3 Receptor in Living Cells” (Frontiers in Pharmacology, 2017).
Where a name gives a salt, the structure may show the parent alone.

biological target: T1, human A3AR (Homo sapiens, UniProt P0DMS8); assay: LOPAC library primary screen: single concentration (10 μM) inhibition of 25 nM CA200645 binding, PHERAstar FS; conditions: not given
T1 construct: expressed in transfected cells
T1 sequence (P0DMS8 1-318): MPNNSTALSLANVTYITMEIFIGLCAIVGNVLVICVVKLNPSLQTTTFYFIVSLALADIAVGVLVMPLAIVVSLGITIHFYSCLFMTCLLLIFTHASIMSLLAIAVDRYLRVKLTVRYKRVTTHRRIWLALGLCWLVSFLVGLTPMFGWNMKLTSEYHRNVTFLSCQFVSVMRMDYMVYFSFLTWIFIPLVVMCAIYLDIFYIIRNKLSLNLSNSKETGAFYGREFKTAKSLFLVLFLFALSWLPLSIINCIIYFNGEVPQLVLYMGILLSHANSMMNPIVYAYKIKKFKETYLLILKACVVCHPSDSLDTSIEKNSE

Going from `O=C1NC(=O)/C(=C/c2ccc3c(c2)OC(F)(F)O3)S1` [AS 604850] to `C[N+](C)(C)CCOP(=O)([O-])OP(=O)([O-])OC[C@H]1O[C@@H](n2ccc(N)nc2=O)[C@H](O)[C@@H]1O.[Na+]`, the “% 25 nM CA200645 binding” value rises from 58.3 ± 11.4% to 102.5 ± 15.7%.

`CC(C)Cn1c(=O)n(C)c(=O)c2[nH]cnc21` [3-Isobutyl-1-methylxanthine] and `Br.NC1CCc2cc(O)c(O)cc2C1` (centres unmarked) [6,7-ADTN hydrobromide] are within error of each other in “% 25 nM CA200645 binding” value: 98.0 ± 7.1% for the first, 100.4 ± 8.1% for the second.

`NC1CCN(O)C1=O` (racemic) [(±)-HA-966] and `C=C(C)[C@H]1CC=C(C(=O)O)CC1` [(-)-Perillic acid] are within error of each other in “% 25 nM CA200645 binding” value: 96.6 ± 6.4% for the first, 115.8 ± 16.6% for the second.

`CN1[C@@H]2CC[C@H]1C[C@@H](OC(c1ccccc1)c1ccccc1N)C2` (some centres unmarked) [Aminobenztropine] and `O=C1CCC(c2ccc(-n3ccnc3)cc2)=NN1` [Imazodan] are within error of each other in “% 25 nM CA200645 binding” value: 92.7 ± 5.2% for the first, 97.4 ± 12.7% for the second.

`Cc1cccc(/C=C/c2ccccc2)n1` [SIB 1893] and `Nc1nc(SCc2ccc([N+](=O)[O-])cc2)c2ncn([C@@H]3O[C@H](CO)[C@@H](O)[C@H]3O)c2n1` [S-(4-Nitrobenzyl)-6-thioguanosine] are within error of each other in “% 25 nM CA200645 binding” value: 88.4 ± 9.6% for the first, 91.9 ± 3.2% for the second.

`Cl.Cl.Fc1ccc(C(OCCN2CCN(CCCc3ccccc3)CC2)c2ccc(F)cc2)cc1` [GBR-12909 dihydrochloride] and `Nc1ncnc2n[nH]c(Nc3ccc(F)cc3)c12` [CGP 57380] are within error of each other in “% 25 nM CA200645 binding” value: 95.7 ± 6.3% for the first, 81.2 ± 23.0% for the second.

`Cl.NNC(N)=O` [Semicarbazide hydrochloride] and `Cc1ccccc1N1C(=O)c2cc(S(N)(=O)=O)c(Cl)cc2NC1C` (centres unmarked) [Metolazone] are within error of each other in “% 25 nM CA200645 binding” value: 98.7 ± 22.6% for the first, 90.5 ± 39.1% for the second.

`O=C(O)CCc1nc(-c2ccccc2)c(-c2ccccc2)o1` [Oxaprozin] and `CCc1cncnc1N1CCN(Cc2nc3ccc(C(F)(F)F)cc3[nH]2)CC1` [PF-4708671] are within error of each other in “% 25 nM CA200645 binding” value: 97.6 ± 6.3% for the first, 99.2 ± 13.5% for the second.

Compared with `CN1C[C@H](C(=O)N[C@]2(C)O[C@@]3(O)[C@@H]4CCCN4C(=O)[C@H](Cc4ccccc4)N3C2=O)C[C@@H]2c3cccc4[nH]cc(c34)C[C@H]21` [Dihydroergotamine methanesulfonate], `COC(=O)c1c(C)[nH]c(C)c1C(=O)c1ccccc1Cc1ccccc1` [FPL 64176] is lower in “% 25 nM CA200645 binding” value: 99.2 ± 11.1% for the first, 74.2 ± 6.7% for the second.

`CCN(c1nc(N)c(C(=O)NC(=N)N)nc1Cl)C(C)C` [5-(N-Ethyl-N-isopropyl)amiloride] and `Nc1ncn([C@@H]2O[C@H](CO)[C@@H](O)[C@H]2O)c(=O)n1` [5-azacytidine] are within error of each other in “% 25 nM CA200645 binding” value: 94.1 ± 7.3% for the first, 92.0 ± 10.7% for the second.

`O=C(O)C1CN(CCCP(=O)(O)O)CCN1` (racemic) [(±)-CPP] and `N[C@@H]1[C@H]2CN(c3nc4c(cc3F)c(=O)c(C(=O)O)cn4-c3ccc(F)cc3F)C[C@@H]12` [Trovafloxacin mesylate] are within error of each other in “% 25 nM CA200645 binding” value: 97.2 ± 1.5% for the first, 94.4 ± 17.2% for the second.

`CC(C)COCC(CN(Cc1ccccc1)c1ccccc1)N1CCCC1` (centres unmarked) [Bepridil hydrochloride] and `O=C(CCCN1CCC(O)(c2cccc(C(F)(F)F)c2)CC1)c1ccc(F)cc1` [Trifluperidol hydrochloride] are within error of each other in “% 25 nM CA200645 binding” value: 101.8 ± 6.3% for the first, 102.8 ± 9.3% for the second.

`CNCC[C@H](Oc1ccc(C(F)(F)F)cc1)c1ccccc1.Cl` [S-(+)-Fluoxetine hydrochloride] and `CCCCNc1ccc(C(=O)OCCN(C)C)cc1` [Tetracaine hydrochloride] are within error of each other in “% 25 nM CA200645 binding” value: 102.0 ± 9.9% for the first, 85.8 ± 26.7% for the second.

`COc1ccc2c(c1OC)C(=O)OC2C1c2cc3c(cc2CCN1C)OCO3` (single isomer, unassigned; (+)) [(+)-Hydrastine] and `CC(C)(NS(=O)(=O)c1ccc(Oc2ccc(F)cc2)cc1)C(=O)NO` [CP-471474] are within error of each other in “% 25 nM CA200645 binding” value: 95.9 ± 10.1% for the first, 98.7 ± 17.5% for the second.

`N[C@H](C(=O)O)c1cc(O)no1` (racemic) [(±)-Ibotenic acid] and `Cn1c(=O)c2[nH]c(-c3ccccc3)nc2n(C)c1=O` [1,3-Dimethyl-8-phenylxanthine] are within error of each other in “% 25 nM CA200645 binding” value: 93.1 ± 9.6% for the first, 91.8 ± 4.8% for the second.

`CC(C)(C)c1ccc(S(=O)(=O)/C=C/C#N)cc1` [Bay 11-7085] and `OC[C@H]1O[C@@H](n2cnc3c(N[C@H]4CCC[C@@H]4O)ncnc32)[C@H](O)[C@@H]1O` [GR 79236X] are within error of each other in “% 25 nM CA200645 binding” value: 95.2 ± 7.7% for the first, 78.0 ± 19.3% for the second.

Going from `CN(C)CC[C@@H](c1ccc(Cl)cc1)c1ccccn1` [(+)-Chlorpheniramine maleate] to `Clc1ccccc1C(c1ccccc1)(c1ccccc1)n1ccnc1` [Clotrimazole], the “% 25 nM CA200645 binding” value falls from 96.8 ± 6.2% to 74.0 ± 15.0%.

`CC(Cc1ccc(O)c(O)c1)C(C)Cc1ccc(O)c(O)c1` (centres unmarked) and `CC(=O)OC(C)C[N+](C)(C)C.[Cl-]` (stereo not drawn) [Acetyl-beta-methylcholine chloride] are within error of each other in “% 25 nM CA200645 binding” value: 79.3 ± 28.3% for the first, 91.4 ± 19.2% for the second.

`C[C@]12CC[C@@H]3c4ccc(O)cc4CC[C@H]3[C@@H]1CCC2=O` [Estrone] and `CC(=O)CCCCn1c(=O)c2c(ncn2C)n(C)c1=O` [Pentoxifylline] are within error of each other in “% 25 nM CA200645 binding” value: 91.0 ± 8.5% for the first, 81.9 ± 17.4% for the second.

`Cc1cc(NC(=O)Nc2ccc3c(ccn3C)c2)sn1` [SB 204741] and `CN(C)CCC=C1c2ccccc2CCc2ccccc21` [Amitriptyline hydrochloride] are within error of each other in “% 25 nM CA200645 binding” value: 88.1 ± 14.4% for the first, 83.6 ± 19.8% for the second.

`O=C(O)c1cc(=O)c2c(Cl)cc(Cl)cc2[nH]1` [5,7-Dichlorokynurenic acid] and `O=C(CCCN1CCC2(CC1)C(=O)NCN2c1ccccc1)c1ccc(F)cc1` [Spiperone hydrochloride] are within error of each other in “% 25 nM CA200645 binding” value: 100.9 ± 8.8% for the first, 85.1 ± 18.3% for the second.

`N=C(N)NC(CCC(=O)O)C(=O)O` (stereo not drawn) [alpha-Guanidinoglutaric acid] and `Br.CN=c1nc(-c2ccccc2)n(-c2ccccc2)s1` [SCH-202676 hydrobromide] are within error of each other in “% 25 nM CA200645 binding” value: 76.4 ± 9.5% for the first, 83.4 ± 13.1% for the second.

`COC(=O)C1=C(C)NC(C)=C(C(=O)OC(C)(C)CN(C)CCC(c2ccccc2)c2ccccc2)C1c1cccc([N+](=O)[O-])c1.COC(=O)C1=C(C)NC(C)=C(C(=O)OC(C)(C)CN(C)CCC(c2ccccc2)c2ccccc2)C1c1cccc([N+](=O)[O-])c1.Cl.Cl.O` (centres unmarked) [Lercanidipine hydrochloride hemihydrate] and `Cl.O=C(O)Cc1c[nH]cn1` [Imidazole-4-acetic acid hydrochloride] are within error of each other in “% 25 nM CA200645 binding” value: 82.9 ± 16.7% for the first, 99.3 ± 14.9% for the second.

`C[C@H]1C[C@H]2[C@@H]3CCC4=CC(=O)C=C[C@]4(C)[C@@]3(F)[C@@H](O)C[C@]2(C)[C@@]1(O)C(=O)CO` [Betamethasone] and `CC[n+]1c(/C=C/C=C2/N(C)c3ccccc3C2(C)C)sc2ccccc21.[I-]` [AC-93253 iodide] are within error of each other in “% 25 nM CA200645 binding” value: 77.0 ± 7.6% for the first, 89.8 ± 11.3% for the second.

`C=C1C[C@@]23CC[C@H]4[C@@](C)(CCC[C@@]4(C)C(=O)O)[C@@H]2CC[C@]1(O)C3` [Steviol] and `CC1(C)CCC=[N+]1[O-]` [5,5-Dimethyl-1-pyrroline-N-oxide] are within error of each other in “% 25 nM CA200645 binding” value: 95.9 ± 19.9% for the first, 106.0 ± 5.3% for the second.

`Br.Br.N=C(N)SCCN` and `CCCC(CCC)C(=O)O[C@H]1C[C@H]2CC[C@@H](C1)[N+]2(C)C` [Anisotropine methyl bromide] are within error of each other in “% 25 nM CA200645 binding” value: 91.5 ± 12.4% for the first, 97.1 ± 12.3% for the second.

`NS(=O)(=O)c1cc(C(=O)O)c(NCc2ccco2)cc1Cl` [Furosemide] and `CCCCCCC(C(C)O)n1cnc2c(N)ncnc21.Cl` (centres unmarked) are within error of each other in “% 25 nM CA200645 binding” value: 95.7 ± 5.9% for the first, 80.7 ± 17.0% for the second.

`O=C(O)c1cccnc1Nc1cccc(C(F)(F)F)c1` [Niflumic acid] and `CO/N=C(\C(=O)N[C@@H]1C(=O)N2C(C(=O)O)=C(COC(C)=O)CS[C@H]12)c1csc(N)n1` [Cefotaxime sodium] are within error of each other in “% 25 nM CA200645 binding” value: 113.3 ± 19.3% for the first, 94.2 ± 6.2% for the second.

Compared with `CN1CCc2cccc(Cl)c2CC1` [SKF 86466], CCT007093 is lower in “% 25 nM CA200645 binding” value: 103.0 ± 12.5% for the first, 68.4 ± 3.4% for the second.

`NCCS(=O)O` [Hypotaurine] and `CC1(C)CCC2=C(O1)c1ccccc1C(=O)C2=O` [beta-Lapachone] are within error of each other in “% 25 nM CA200645 binding” value: 94.6 ± 26.1% for the first, 93.1 ± 5.0% for the second.

Going from `OCC(CO)(CBr)CBr` [BBMP] to `Oc1c2ccccc2c2c3c(cccc13)N=N2` [SP600125], the “% 25 nM CA200645 binding” value falls from 93.9 ± 9.9% to 41.0 ± 10.4%.

`O=c1[nH]c(=S)[nH]c(-c2ccccc2)c1Cc1c(O)ccc2ccccc12` [Cambinol] was tested, and the “% 25 nM CA200645 binding” value was 94.8 ± 8.3%.

same assay, conditions: % of control wells (1% DMSO and 25 nM CA200645); compounds at 10 µM; whole live cells expressing A3AR; mean ± SD, three experiments in duplicate

In the case of `CN1[C@@H]2CC[C@H]1C[C@@H](OC(=O)c1cc(Cl)cc(Cl)c1)C2` [3-Tropanyl-3,5-dichlorobenzoate], the “% 25 nM CA200645 binding” value is reported as 96.9 ± 4.1%.

same assay, conditions: % of control wells (1% DMSO and 25 nM CA200645); compounds at 10 µM; whole live cells expressing the A3AR; mean ± SD, three experiments in duplicate

`N=C(N)c1ccc(N)cc1` [4-Aminobenzamidine dihydrochloride] was tested, and the “% 25 nM CA200645 binding” value was 97.4 ± 8.5%.

same assay, conditions: compounds tested at 10 µM; % of control wells (1% DMSO and 25 nM CA200645); […]; mean ± SD, three experiments in duplicate

For `COc1cc(C(O)CN)ccc1O.Cl` (racemic) [(±)-Normetanephrine hydrochloride], the “% 25 nM CA200645 binding” value was 95.5 ± 24.8%.

same assay, conditions: compounds tested at 10 µM; % of control wells (1% DMSO and 25 nM CA200645); whole live cells expressing the A3AR; mean ± SD, three experiments in duplicate

`C[N+]1(C)[C@@H]2CC[C@H]1C[C@@H](OC(=O)C(CO)c1ccccc1)C2` (some centres unmarked) [Atropine methyl nitrate] and `Oc1cc2c(cc1O)CN(C(=S)NCCc1ccc(Cl)cc1)CCC2` [Capsazepine] are within error of each other in “% 25 nM CA200645 binding” value: 90.8 ± 8.8% for the first, 90.6 ± 11.8% for the second.
